Results as given in US20240124396A1, “AMINO LIPID COMPOUND, PREPARATION METHOD THEREFOR, AND USE THEREOF” (SHENZHEN SHENXIN BIOTECHNOLOGY CO., LTD., priority 2021, published 2024).

test system: Luciferase mRNA (Fluc mRNA); test: Luciferase mRNA in vivo delivery performance of lipid nanoparticles prepared from amino lipid compounds; set-up: species or system BALB/c mice; settings: batch 1; LNP with Fluc mRNA, 0.5 mg/kg intramuscular injection, mice, total fluorescence intensity imaged 6 hours after dosing
Protocol: Evaluation of Luciferase mRNA In Vivo Delivery Performance of Lipid Nanoparticles Prepared from Amino Lipid Compounds • Preparation process: The delivery vector in the present invention, DSPC, cholesterol, and PEG2000-DMG were mixed and dissolved in absolute ethanol in a molar ratio of 50:10:38.5:1.5. Luciferase mRNA (Fluc mRNA) was dissolved in a sodium acetate solution (50 mM, pH=4.0). Two microinjection pumps were used, and the ratio of ethanol solution to sodium acetate solution (50 mM, pH=4.0) was controlled to be 1:3. A crude solution of lipid nanoparticles was prepared in a microflow channel chip, then dialyzed for 6 hours with 1×PBS (phosphate buffer solution) at a controlled temperature of 4° C. by using a dialysis cassette (Fisher, MWCO 20,000), and filtered with a 0.22 μm microporous filter membrane before use. The mass ratio of the amino lipid compound to luciferase mRNA (Fluc mRNA) was about 10:1. • Animal preparation: 6-week-old male BALB/c mice with body weights of about 20 g were selected, and fed in an SPF-grade feeding room. Animal experiments were strictly carried out according to the guidelines of the national health institution and the requirements of animal ethics. • In vivo delivery: 3 mice were randomly selected per group and injected with lipid nanoparticles at a dose of 0.5 mg/kg by intramuscular injection. After 6 hours, 200 μL of 10 mg/mL potassium […] was injected into each mouse via the tail vein, and after 10 minutes, the mice were placed under an in vivo imaging system (IVIS-200, Xenogen), and the total fluorescence intensity of each mouse was observed and recorded by photographing.
Table 1 provides the expression intensities of Fluc mRNA delivered by the intramuscular injection administration of the representative amino lipid compounds with DLin-MC3 as the control (two batches of tests in total).

| SMILES | Fluorescence intensity |
| --- | --- |
| CCCCCCCCCCCCCCCCN1C(=O)CC[C@H](C(=O)OCCN2CCOCC2)[C@H]1CCCCCCCCCCC (racemic) [Compound 3] | 5.1E+06 |
| CCCCCCCCCCCCCCCCN1C(=O)CC[C@H](C(=O)OCCCN2CCN(C)CC2)[C@H]1CCCCCCCCC (racemic) [Compound 4] | 2.8E+06 |
| CCCCCCCCCCCCCCC[C@@H]1[C@@H](C(=O)OCCN2CCCCC2)CCC(=O)N1CCCCCCCCCCCCC (racemic) [Compound 6] | 3.1E+05 |
| CCCCCCCCCCCCCCCCC[C@@H]1[C@@H](C(=O)OCC2CCN(C)CC2)CCC(=O)N1CCCCCCCCCCCC (racemic) [Compound 7] | 6.1E+05 |
| CCCCCCCCCCCCCCCCN1C(=O)C[C@H](C(=O)NCCN2CCCCC2)[C@H]1CCCCCCCC (racemic) [Compound 9] | 6.1E+06 |
| CCCCCCCCCCCCCCCCC[C@@H]1[C@@H](C(=O)NCCN2CCN(C)CC2)CC(=O)N1CCCCCC (racemic) [Compound 10] | 8.1E+05 |
| CCCCCCCC/C=C\CCCCCCCCN1C(=O)C[C@H](C(=O)NCCCN(C)C)[C@H]1CCCCCCCCCCC (racemic) [Compound 11] | 2.1E+06 |
| CCCCCCCC/C=C\CCCCCCC[C@@H]1[C@@H](C(=O)OCCN2CCCC2)CC(=O)N1CCCCCCCCCCCCCCCC (racemic) [Compound 15] | 2.8E+07 |
| CCCCCCCC/C=C\CCCCCCC[C@@H]1[C@@H](C(=O)OCCN2CCCCC2)CC(=O)N1CCCCCCCCCCCC (racemic) [Compound 16] | 1.4E+07 |
| CCCCC/C=C\C/C=C\CCCCCCC[C@@H]1[C@@H](C(=O)OCCCN(C)C)CC(=O)N1CCCCCCCCCCCCC (racemic) [Compound 19] | 2.1E+06 |
| CCCCC/C=C\C/C=C\CCCCCCC[C@@H]1[C@@H](C(=O)OCCN2CCCC2)CC(=O)N1CCCCCCCCCCCCCCCC (racemic) [Compound 20] | 5.2E+06 |
| CCCCCCCCCCCCN1C(=O)C[C@H](C(=O)NCCN(C)C)[C@H]1CCCCCCCCCCC (racemic) [Compound N12A12C4D1] | 2.9E+07 |
| CCCCCCCCCCCCN1C(=O)C[C@H](C(=O)OCCCN(C)C)[C@H]1CCCCCCCCCCC (racemic) [Compound N12A12C4O2] | 2.8E+06 |
| CCCCC/C=C\C/C=C\CCCCCCC[C@@H]1[C@@H](C(=O)OCCN2CCCCC2)CC(=O)N1CCCCCCCCCCCC (racemic) [Compound N12A20C4O10] | 2.7E+06 |
| CCCCCCCCCCCCCCCCN1C(=O)CC[C@H](C(=O)OCCN2CCCCC2)[C@H]1CCCCCCCCC (racemic) [Compound N16A10C5O10] | 4.5E+06 |
| CCCCC/C=C\C/C=C\CCCCCCCCC(CCCCCCCC/C=C\C/C=C\CCCCC)OC(=O)CCCN(C)C [Dlin-MC3, reference compound] | 7.7E+06 |

same assay, conditions: batch 2; LNP with Fluc mRNA, 0.5 mg/kg intramuscular injection, mice, total fluorescence intensity imaged 6 hours after dosing

| SMILES | Fluorescence intensity |
| --- | --- |
| CCCCCCCC/C=C\CCCCCCCCN1C(=O)C[C@H](C(=O)OCCN2CCCCC2)[C@H]1CCCCCCCCC (racemic) [Lipid 1] | 8.8E+06 |
| CCCCCCCC/C=C\CCCCCCCCN1C(=O)C[C@H](C(=O)OCCCN(C)C)[C@H]1CCCCCCCCCCCCCC (racemic) [Lipid 2] | 4.9E+06 |
| CCCCCCCC/C=C\CCCCCCCCN1C(=O)C[C@H](C(=O)OCCN2CCCC2)[C@H]1CCCCCCCCCCCCCCCCC (racemic) [Lipid 3] | 2.9E+07 |
| CCCCC/C=C\C/C=C\CCCCCCCCN1C(=O)C[C@H](C(=O)OCCN2CCCC2)[C@H]1CCCCCCCCCCCCCC (racemic) [Lipid 5] | 7.6E+06 |
| CCCCC/C=C\C/C=C\CCCCCCCCN1C(=O)C[C@H](C(=O)OCCCN2CCN(C)CC2)[C@H]1CCCCCCCCCCCC (racemic) [Lipid 6] | 3.7E+06 |
| CCCCCCCC/C=C\CCCCCCC[C@@H]1[C@@H](C(=O)OCCN2CCCC2)CC(=O)N1CCCCCCCCCCCCCCCC (racemic) [Lipid 7] | 4.8E+07 |
| CCCCCCCC/C=C\CCCCCCC[C@@H]1[C@@H](C(=O)OCCN2CCCCC2)CC(=O)N1CCCCCCCCCCCC (racemic) [Lipid 8] | 2.3E+07 |
| CCCCC/C=C\C/C=C\CCCCCCCC[C@@H]1[C@@H](C(=O)OCCN2CCCCC2)CC(=O)N1CCCCCCCCCCCC (racemic) [Lipid 9] | 4.2E+06 |
| CCCCC/C=C\C/C=C\CCCCCCCC[C@@H]1[C@@H](C(=O)OCC2CCN(C)CC2)CC(=O)N1CCCCCCCCCCCCC (racemic) [Lipid 10] | 3.6E+06 |
| CCCCC/C=C\C/C=C\CCCCCCCCC(CCCCCCCC/C=C\C/C=C\CCCCC)OC(=O)CCCN(C)C [Dlin-MC3, reference compound] | 6.9E+06 |

test system: Ovalbumin mRNA (OVA mRNA); test: Ovalbumin mRNA in vivo delivery and immunization performance of lipid nanoparticles (ELISA IgG titer); set-up: species or system BALB/c mice; settings: LNP with OVA mRNA, 0.5 mg/kg subcutaneous injection Day 0 and Day 7, blood on the 21st day, FIG. 1 and FIG. 2
Protocol: Evaluation of Ovalbumin mRNA In Vivo Delivery and Immunization Performance of Lipid Nanoparticles (Delivery Vector) Prepared from Amino Lipid Compounds • Preparation process: The amino lipid compound described in the present invention, DSPC, cholesterol, and PEG2000-DMG were mixed and dissolved in absolute ethanol in a molar ratio of 50:10:38.5:1.5. Ovalbumin mRNA (OVA mRNA) was dissolved in a sodium acetate solution (50 mM, pH=4.0). Two microinjection pumps were used, and the ratio of ethanol solution to sodium acetate solution (50 mM, pH=4.0) was controlled to be 1:3. A crude solution of lipid nanoparticles was prepared in a microflow channel chip, then dialyzed for 6 hours with 1×PBS at a controlled temperature of 4° C. by using a dialysis cassette (Fisher, MWCO 20,000), and filtered with a 0.22 μm microporous filter membrane before use. The mass ratio of the amino lipid compound to ovalbumin mRNA (OVA mRNA) was about 10:1. • Animal preparation: 6-week-old male BALB/c mice with body weights of about 20 g were selected, and fed in an SPF-grade feeding room. Animal experiments were strictly carried out according to the guidelines of the national health institution and the requirements of animal ethics. • In vivo delivery: 3 mice were randomly selected per group and injected with lipid nanoparticles at a dose of 0.5 mg/kg by subcutaneous injection (Day 0). After 7 days, the same amount was used for another boost (Day 7). Tail vein blood was taken on the 21st day for the serological analysis. DLin-MC3 was used as the control. • Enzyme-linked immunosorbent assay (ELISA): a flat-bottomed 96-well plate (Nunc) was pre-coated with a concentration of OVA protein of 0.5 μg protein per well in 50 mM carbonate buffer (pH 9.6), and was allowed to stay overnight at 4° C., and then blocked with 5% glycine. Anti-serums, proteins obtained from immune animals, were diluted from 10^2 to 10^6 with PBS-0.05% Tween (PBS-T) at pH 7.4, added to the wells and incubated at room temperature, and placed at 37° C. for 1 hour. Horseradish peroxidase (HRP) coupled goat anti-mouse IgG was used for labeling in PBS-T-1% BSA at a dilution rate of 1:10,000. After the addition of the HRP substrate, the optical density was determined at a wavelength, and the absorbance at 450 nm was measured in an ELISA microplate reader (Bio-Rad).
It will be appreciated that modifications and variations are possible to those skilled in the art in light of the above teachings, and it is intended that the present invention cover all such modifications and variations as fall within the scope of the appended claims.

| SMILES | IgG antibody titers compared with the DLin-MC3 control group |
| --- | --- |
| CCCCCCCCCCCCN1C(=O)C[C@H](C(=O)NCCN(C)C)[C@H]1CCCCCCCCCCC (racemic) [Compound N12A12C4D1] | significantly superior |
| CCCCCCCCCCCCN1C(=O)C[C@H](C(=O)OCCCN(C)C)[C@H]1CCCCCCCCCCC (racemic) [Compound N12A12C4O2] | comparable |
| CCCCC/C=C\C/C=C\CCCCCCC[C@@H]1[C@@H](C(=O)OCCN2CCCCC2)CC(=O)N1CCCCCCCCCCCC (racemic) [Compound N12A20C4O10] | significantly superior |
| CCCCCCCCCCCCCCCCN1C(=O)CC[C@H](C(=O)OCCN2CCCCC2)[C@H]1CCCCCCCCC (racemic) [Compound N16A10C5O10] | significantly superior |
